Consider eleven molecules from patent publication US12589156B2, “Benzimidazole and benzimidazolone based protac compounds for the targeted degradation of leucine rich repeat kinase 2 (LRRK2)” (Arvinas Operations, Inc., priority 2023, dated 2026).

This assay deals with T1, WT LRRK2 (Homo sapiens, UniProt Q5S007).
T1 construct: endogenous in cells; host or cells: HEK293 (endogenous LRRK2 gene knock-in tagged with HiBit; stably expressing CMV-driven firefly luciferase)
Kind of assay: LRRK2 HiBit degradation assay (Nano-Glo Dual Luciferase) in HEK293 cells with HiBit-tagged endogenous LRRK2. It counts as cell-based. To be noted: HiBit-tagged LRRK2 in HEK293 cells, 24 hours treatment; for Dmax: HEK293, Table 2, maximal degradation; for DC50: Table 2, starting concentration 1 μM. The text has this:
Biological Assays Exemplary Assay for Testing LRRK2 Degradation Driven by Exemplary Hetero-Bifunctional Compounds Designed to Target LRRK2
The assay measures the degradation of LRRK2 in cells where the C-terminus (3′) of the endogenous gene has been tagged with a HiBit sequence in HEK293 cells. The cells also express firefly lucisferase, expressed from a Cytomegalovirus promoter and introduced into the HiBit tagged cells and stably expressed. The Nano-Glo® Dual Luciferase Reporter Assay System (Promega™, Madison, WI) was utilized.
Day 1—Preparation of Compound and Assay Plates. Two sets of plates were prepared: a triplicate set for the HiBit assay in white 384-well plates and a triplicate set of plate in black 384-well plates for the Alamar Blue cell viability assay. Briefly, the growth media (DMEM+Glutamax-10% fetal bovine serum-1% Penicillin-Streptomicin) from two T128 flasks was aspirated from the flasks. Cells were washed with Dulbecco's Phosphate Buffered Saline (dPBS) and aspirated. Trypsin (3 mL per flask) was added and the flasks were incubated for 2-3 minutes.
Ten mL of OptiMEM—10% fetal bovine-1% penicillin-streptomycin (hereinafter, “OptiMEM media”) was added to the flask and the cells and transferred to a 50 ml conical tube. A cell count (25 ul of cell into Effendorf vial+25 ul of Trypan Blue Stain) was performed and the cell density adjusted to 15,000 cell/45 μl/well (3.33×10^5/mL) in OptiMEM media.
Forty-five microliters of the cell suspension (15,000 cells) was aliquoted to each well of the white 384-well plate. The plates incubated at room temperature for 10 minutes before being placed in the 37° C.+5% CO2 incubator overnight
Day 2—Compound Treatment. Exemplary compounds were prepared at a 1 mM starting concentration and 1:3 serial dilution for 11 points CRC prepared and stored in the freezer. The Master Compound Plate was thawed overnight at room temperature. DMSO (20 μL) was added into column 24 of the Master Compound Plate for negative control and 20 μL of 300 μM of Compound 4 in column 23 as positive control.
Intermediate Compound Plate with 4% DMSO in OptiMEM Media. DMSO was added to warm OptiMEM media to achieve a 4% DMSO solution (approximately 50 mL/plate). One-hundred microliters of the OptiMEM-4% DMSO was aliquoted to each well of 384-Well Deep Well Microplates.
The Master Compound Plate and the Intermediate Compound Plate were spun down.
One microliter of compound from the Master Compound Plate was transferred into the Intermediate plate (a 1:100 dilution). The diluted mixture was mixed and 5 μL transferred into the assay plate (a 1:10 dilution) for the final starting concentration of 1 μM. The Treated Assay plates were incubated for 24 hours at 37° C.+5% CO2. The Master Compound Plate was sealed and store at room temperature for a second run that was performed within a week.
One set of white assay plates was warmed to room temperature (45 minute).
The One Glo luciferase mixture was prepared. The media from white 384-well assay plates was aspirated. Twenty-five μL of the One Glo luciferase mixture was added to each well of the assay plates. The plates were incubated on the bench (room temperature) for 45 minutes, including 10 minutes of shaking at 700 rpm. The luminescence of each plate was read on a plate reader.
1:100 DLR substrate and 1:100 LgBiT Protein dilution were added to the Promega Stop and Glo buffer and mixed just before addition to assay plates. Twenty-five microliters of Stop and Glo mixture was added to each well. Assay plates incubated for at least 45 minutes, including 10 minutes of shaking at 700 rpm. The luminescence of each plate was read on a plate reader.
Analysis of LRRK2 HiBit Screening assays. As mentioned above, plates were run in triplicate and the assay repeated twice (total of 6 replicate for exemplary compounds). For each treatment, measurements were taken for firefly luciferase for cell number, cell viability (Alamar Blue), and Nanoluc for the LRRK2-HiBit quantification. […]
(The HiBiT peptide binds its large partner to form an active luciferase.)

T1 sequence (Q5S007 whole entry): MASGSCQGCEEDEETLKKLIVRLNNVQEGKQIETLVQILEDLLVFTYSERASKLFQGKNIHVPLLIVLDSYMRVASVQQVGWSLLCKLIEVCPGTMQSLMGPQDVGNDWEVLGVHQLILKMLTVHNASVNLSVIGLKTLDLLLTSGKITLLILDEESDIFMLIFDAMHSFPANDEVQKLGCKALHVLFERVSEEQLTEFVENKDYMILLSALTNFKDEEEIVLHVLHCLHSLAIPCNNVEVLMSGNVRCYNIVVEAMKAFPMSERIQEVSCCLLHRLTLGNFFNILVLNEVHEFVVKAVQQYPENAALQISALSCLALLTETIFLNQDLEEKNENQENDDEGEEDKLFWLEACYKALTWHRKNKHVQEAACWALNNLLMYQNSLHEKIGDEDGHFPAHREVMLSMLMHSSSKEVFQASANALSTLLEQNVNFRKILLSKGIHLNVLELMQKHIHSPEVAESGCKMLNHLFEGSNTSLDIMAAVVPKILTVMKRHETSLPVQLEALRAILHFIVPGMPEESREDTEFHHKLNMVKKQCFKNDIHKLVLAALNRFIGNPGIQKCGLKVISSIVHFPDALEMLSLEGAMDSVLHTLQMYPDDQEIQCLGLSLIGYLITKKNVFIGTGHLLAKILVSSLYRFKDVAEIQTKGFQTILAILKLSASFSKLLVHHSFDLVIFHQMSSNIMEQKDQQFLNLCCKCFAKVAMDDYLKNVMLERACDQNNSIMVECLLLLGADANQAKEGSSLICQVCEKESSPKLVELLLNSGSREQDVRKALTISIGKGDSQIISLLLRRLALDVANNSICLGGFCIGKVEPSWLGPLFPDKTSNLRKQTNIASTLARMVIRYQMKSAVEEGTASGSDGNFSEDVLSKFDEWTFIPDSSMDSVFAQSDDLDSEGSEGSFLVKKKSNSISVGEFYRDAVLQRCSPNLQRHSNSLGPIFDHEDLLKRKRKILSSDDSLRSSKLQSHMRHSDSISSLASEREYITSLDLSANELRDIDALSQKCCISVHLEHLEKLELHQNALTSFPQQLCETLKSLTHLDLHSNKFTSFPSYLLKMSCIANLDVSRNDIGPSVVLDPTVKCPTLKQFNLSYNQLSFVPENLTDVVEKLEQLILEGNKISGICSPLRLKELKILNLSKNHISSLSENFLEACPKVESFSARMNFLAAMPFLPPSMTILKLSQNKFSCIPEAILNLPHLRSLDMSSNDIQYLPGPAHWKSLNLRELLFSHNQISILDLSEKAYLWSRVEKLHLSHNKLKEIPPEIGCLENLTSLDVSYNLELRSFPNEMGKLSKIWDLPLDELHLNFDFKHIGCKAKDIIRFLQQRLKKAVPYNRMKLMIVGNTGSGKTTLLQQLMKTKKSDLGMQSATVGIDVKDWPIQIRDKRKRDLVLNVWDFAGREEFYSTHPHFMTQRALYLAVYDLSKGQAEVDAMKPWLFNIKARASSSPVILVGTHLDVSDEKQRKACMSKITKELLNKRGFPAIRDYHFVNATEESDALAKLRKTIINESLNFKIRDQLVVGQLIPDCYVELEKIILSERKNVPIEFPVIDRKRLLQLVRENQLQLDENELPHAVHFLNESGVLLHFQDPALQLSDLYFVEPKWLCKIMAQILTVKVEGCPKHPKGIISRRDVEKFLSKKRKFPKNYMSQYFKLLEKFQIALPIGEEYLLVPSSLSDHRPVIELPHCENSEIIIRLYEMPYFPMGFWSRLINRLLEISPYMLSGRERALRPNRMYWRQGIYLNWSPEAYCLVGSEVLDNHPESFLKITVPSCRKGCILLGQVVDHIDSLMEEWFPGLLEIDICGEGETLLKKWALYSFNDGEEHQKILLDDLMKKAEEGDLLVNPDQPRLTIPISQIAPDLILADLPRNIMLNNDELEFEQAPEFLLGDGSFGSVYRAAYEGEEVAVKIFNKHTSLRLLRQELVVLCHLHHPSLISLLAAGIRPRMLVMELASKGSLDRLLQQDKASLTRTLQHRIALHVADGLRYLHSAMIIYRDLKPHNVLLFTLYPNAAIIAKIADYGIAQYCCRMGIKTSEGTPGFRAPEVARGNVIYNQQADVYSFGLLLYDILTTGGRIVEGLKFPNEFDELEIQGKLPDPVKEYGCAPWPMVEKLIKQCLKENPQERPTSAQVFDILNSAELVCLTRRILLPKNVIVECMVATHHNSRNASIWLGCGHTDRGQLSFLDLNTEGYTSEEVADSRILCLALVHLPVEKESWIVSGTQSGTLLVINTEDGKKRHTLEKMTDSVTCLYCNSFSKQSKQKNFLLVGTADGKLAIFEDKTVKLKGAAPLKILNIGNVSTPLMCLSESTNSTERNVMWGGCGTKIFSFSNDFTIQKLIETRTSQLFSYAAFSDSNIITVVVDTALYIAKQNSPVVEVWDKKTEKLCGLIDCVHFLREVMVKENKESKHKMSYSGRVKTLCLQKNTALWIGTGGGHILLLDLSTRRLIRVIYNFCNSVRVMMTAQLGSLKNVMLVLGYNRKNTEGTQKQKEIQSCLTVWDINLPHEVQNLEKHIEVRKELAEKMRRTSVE

Usually Dmax stands for the largest share of the target that was removed. One may read the DC50 as the midpoint of the concentration-degradation curve. Higher therefore signals degradation only at high concentration. Take `CC(C)n1c(=O)n(C2CCC(=O)NC2=O)c2ccc(N3CCC(O[C@H]4CC[C@H](CN5CCN(c6cc(-c7n[nH]c8ccc(OC9(C)CC9)cc78)ncn6)CC5)CC4)CC3)cc21` (single isomer, unassigned) [Compound 49, rel-3-[2-oxo-3-(propan-2-yl)-5-(4-{[(1r,4r)-4-[(4-{6-[5-(1-methylcyclopropoxy)-1H-indazol-3-yl]pyrimidin-4-yl}piperazin-1-yl)methyl]cyclohexyl]oxy}piperidin-1-yl)-2,3-dihydro-1H-1,3-benzodiazol-1-yl]piperidine-2,6-dione]: the Dmax is 55% and it took 0.44 nM to reach half-maximal degradation (DC50).

The molecule `CC(C)n1c(=O)n(C2CCC(=O)NC2=O)c2ccc(N3CCC(O[C@H]4CC[C@H](CN5CCN(c6cc(-c7n[nH]c8cnc(OC9(C)CC9)cc78)ncn6)CC5)CC4)CC3)cc21` (single isomer, unassigned) [Compound 52, rel-3-[2-oxo-3-(propan-2-yl)-5-(4-{[(1r,4r)-4-[(4-{6-[5-(1-methylcyclopropoxy)-1H-pyrazolo[3,4-c]pyridin-3-yl]pyrimidin-4-yl}piperazin-1-yl)methyl]cyclohexyl]oxy}piperidin-1-yl)-2,3-dihydro-1H-1,3-benzodiazol-1-yl]piperidine-2,6-dione] showed a Dmax of 53% and a DC50 of 0.28 nM.

`CC(C)n1c(=O)n(C2CCC(=O)NC2=O)c2ccc(N3CCC(O[C@H]4CC[C@@H](CN5CCN(c6cc(-c7n[nH]c8cnc(OC9(C)CC9)cc78)ncn6)CC5)CC4)CC3)cc21` (single isomer, unassigned) [Compound 53, rel-3-[2-oxo-3-(propan-2-yl)-5-(4-{[(1r,4r)-4-[(4-{6-[5-(1-methylcyclopropoxy)-1H-pyrazolo[3,4-c]pyridin-3-yl]pyrimidin-4-yl}piperazin-1-yl)methyl]cyclohexyl]oxy}piperidin-1-yl)-2,3-dihydro-1H-1,3-benzodiazol-1-yl]piperidine-2,6-dione] had a Dmax of 54% and a DC50 of 0.59 nM.

`CC(C)n1c(=O)n(C2CCC(=O)NC2=O)c2ccc(N3CCC(O[C@H]4CC[C@H](CN5CCN(c6cc(-c7n[nH]c8ccc(OC(C)(C)C)cc78)ncn6)CC5)CC4)CC3)cc21` (single isomer, unassigned) [Compound 56, rel-3-[2-oxo-3-(propan-2-yl)-5-(4-{[(1r,4r)-4-[(4-{6-[5-(tert-butoxy)-1H-indazol-3-yl]pyrimidin-4-yl}piperazin-1-yl)methyl]cyclohexyl]oxy}piperidin-1-yl)-2,3-dihydro-1H-1,3-benzodiazol-1-yl]piperidine-2,6-dione] gave a Dmax of 43% and a half-maximal degradation concentration (DC50) of 0.95 nM.

In turn, `CC(C)Oc1ccc2[nH]nc(-c3cc(N4CCN(C[C@H]5CC[C@H](OC6CCN(c7ccc8c(c7)n(C(C)C)c(=O)n8C7CCC(=O)NC7=O)CC6)CC5)CC4)ncn3)c2c1` (single isomer, unassigned) [Compound 57, rel-3-[2-oxo-3-(propan-2-yl)-5-(4-{[(1r,4r)-4-[(4-{6-[5-(propan-2-yloxy)-1H-indazol-3-yl]pyrimidin-4-yl}piperazin-1-yl)methyl]cyclohexyl]oxy}piperidin-1-yl)-2,3-dihydro-1H-1,3-benzodiazol-1-yl]piperidine-2,6-dione] came in with a Dmax of 51% and a DC50 of 0.64 nM.

`CC(C)n1c(=O)n(C2CCC(=O)NC2=O)c2ccc(N3CCC(O[C@H]4CC[C@H](CN5CCN(c6cc(-c7n[nH]c8cnc(OC(C)(C)C)cc78)ncn6)CC5)CC4)CC3)cc21` (single isomer, unassigned) [Compound 58, rel-3-[2-oxo-3-(propan-2-yl)-5-(4-{[(1r,4r)-4-[(4-{6-[5-(tert-butoxy)-1H-pyrazolo[3,4-c]pyridin-3-yl]pyrimidin-4-yl}piperazin-1-yl)methyl]cyclohexyl]oxy}piperidin-1-yl)-2,3-dihydro-1H-1,3-benzodiazol-1-yl]piperidine-2,6-dione] gave a Dmax of 70% and a half-maximal degradation concentration (DC50) of 33 nM.

`CC(C)Oc1cc2c(-c3cc(N4CCN(C[C@H]5CC[C@H](OC6CCN(c7ccc8c(c7)n(C(C)C)c(=O)n8C7CCC(=O)NC7=O)CC6)CC5)CC4)ncn3)n[nH]c2cn1` (single isomer, unassigned) [Compound 59, rel-3-[2-oxo-3-(propan-2-yl)-5-(4-{[(1r,4r)-4-[(4-{6-[5-(propan-2-yloxy)-1H-pyrazolo[3,4-c]pyridin-3-yl]pyrimidin-4-yl}piperazin-1-yl)methyl]cyclohexyl]oxy}piperidin-1-yl)-2,3-dihydro-1H-1,3-benzodiazol-1-yl]piperidine-2,6-dione] gave a Dmax of 41% and a DC50 of 0.74 nM.

For `COc1ccc2[nH]nc(-c3cc(N4CCN(C[C@H]5CC[C@H](OC6CCN(c7ccc8c(c7)n(C)c(=O)n8C7CCC(=O)NC7=O)CC6)CC5)CC4)ncn3)c2c1` (single isomer, unassigned) [Compound 60, rel-3-[3-methyl-2-oxo-5-(4-{[(1r,4r)-4-({4-[6-(5-methoxy-1H-indazol-3-yl)pyrimidin-4-yl]piperazin-1-yl}methyl)cyclohexyl]oxy}piperidin-1-yl)-2,3-dihydro-1H-1,3-benzodiazol-1-yl]piperidine-2,6-dione], the greatest degradation seen (Dmax) worked out at 38% and it took 0.67 nM to reach half-maximal degradation (DC50).

Molecule `CCOc1ccc2[nH]nc(-c3cc(N4CCN(C[C@H]5CC[C@H](OC6CCN(c7ccc8c(c7)n(C)c(=O)n8C7CCC(=O)NC7=O)CC6)CC5)CC4)ncn3)c2c1` (single isomer, unassigned) [Compound 61, rel-3-[3-methyl-2-oxo-5-(4-{[(1r,4r)-4-({4-[6-(5-ethoxy-1H-indazol-3-yl)pyrimidin-4-yl]piperazin-1-yl}methyl)cyclohexyl]oxy}piperidin-1-yl)-2,3-dihydro-1H-1,3-benzodiazol-1-yl]piperidine-2,6-dione] showed a Dmax of 48% and a DC50 of 0.51 nM.

Turning to `Cn1c(=O)n(C2CCC(=O)NC2=O)c2ccc(N3CCC(O[C@H]4CC[C@H](CN5CCN(c6cc(-c7n[nH]c8ccc(C9(C#N)CCC9)cc78)ncn6)CC5)CC4)CC3)cc21` (single isomer, unassigned) [Compound 62, rel-1-{3-[6-(4-{[(1r,4r)-4-({1-[1-(2,6-dioxopiperidin-3-yl)-3-methyl-2-oxo-2,3-dihydro-1H-1,3-benzodiazol-5-yl]piperidin-4-yl}oxy)cyclohexyl]methyl}piperazin-1-yl)pyrimidin-4-yl]-1H-indazol-5-yl}cyclobutane-1-carbonitrile], the Dmax stood at 54% and the DC50 was 0.3 nM.

As to `Cn1c(=O)n(C2CCC(=O)NC2=O)c2ccc(N3CCC(O[C@H]4CC[C@H](CN5CCN(c6cc(-c7n[nH]c8ccc(C9(C#N)CC9)cc78)ncn6)CC5)CC4)CC3)cc21` (single isomer, unassigned) [Compound 63, rel-1-{3-[6-(4-{[(1r,4r)-4-({1-[1-(2,6-dioxopiperidin-3-yl)-3-methyl-2-oxo-2,3-dihydro-1H-1,3-benzodiazol-5-yl]piperidin-4-yl}oxy)cyclohexyl]methyl}piperazin-1-yl)pyrimidin-4-yl]-1H-indazol-5-yl}cyclopropane-1-carbonitrile], the Dmax is 56% and it took 0.13 nM to reach half-maximal degradation (DC50).
